According to patent publication US20060025446A1, “Propargyl nitroxides and indanyl nitroxides and their use for the treatment of neurologic diseases and disorders” (priority 2004, published 2006):
Where a name gives a salt, the structure may show the parent alone.

How the values were obtained:
[1] = tested on: EAE using MOG (Myelin Oligodendrocyte Glycoprotein); experiment: MOG induced EAE in mice; format: in vivo, Female C57B1/6 mice
[2] = tested on: NGF-Differentiated PC12 Cells; experiment: MPP+ Parkinson neurotoxicity/neuroprotection model, LDH release; format: cell-based; conditions: MPP+ 1000 μM, 48-52 hr
Protocol: The Parkinson Neurotoxicity Model of 1-methyl-4-phenyl piridinium (MPP+ Iodine Salt, 1000 μM for 48-52 hr), Using 7-10 Days NGF-Differentiated PC12 Cells.
The slow developing cell death in this model is believed to be a result of inhibition of mitochondrial complex I and generation of oxygen and nitrogen radicals. Therefore the antioxidant tempol (4-HYDROXY-TEMPO) was used as a positive standard in the screening experiments with the compounds. The following detailed protocol was employed for testing.
MPP+—Neurotoxicity/Neuroprotection Protocol:
• 1. PC12 cells (2×10^5 cells) were seeded on NUNC 6-well dishes coated with 200 μg/ml collagen (rat tail type I) and grown in DMEM medium containing 7% Fetal Calf Serum, 7% Horse Serum and […] Penicilin and 100 ug/ml Streptomycin. • 2. Differentiation of the cells for 7-10 days was achieved by treatment with mouse β-NGF (β-nerve growth factor) (50 ng/ml) added freshly every 2-3 days to the culture medium. • 3. Cultures were progressively evaluated for the differentiation response expressed by elongation of neurites, increased percentage of responsive cells, and other morphological parameters. • 4. At the day of the experiment, the medium of the differentiated cultures was replaced to fresh medium containing NGF (50 ng/ml). • 5. […] LDH (lactic dehydrogenase) release to the medium (neurotoxicity) was measured after 48-52 hr after the addition of MPP+, using an ELISA reader. […]
Neurotoxicity is defined as the percentage of LDH released to the medium at the end of the experiment calculated according to the following formula: {LDH(MPP)−LDH(control)}/{LDH(total)−LDH(control)}×100=Neurotoxicity (% of total cell death) • LDH(MPP): LDH release at the end of MPP+ insult • LDH(control): LDH release at the end of experiment from untreated cultures • LDH(total): LDH released from the cultures upon freezing at −80° C. and thawing at room temperature (release of total/maximal LDH present in the culture) […]

[3] = Chemiluminescence model (without cells): Luminol, SIN-1, selenite, BSA; format: biochemical; conditions: antioxidant activity
Excerpt: Chemiluminescence Model (Without Cells)
Luminescence was generated in vials containing the following compounds: Luminol, SIN-1 (a generator of NO radicals), selenite, BSA. This reaction is inhibited by scavengers of peroxynitirites as well as scavengers of NO and other oxygen free radicals.

[4] = tested on: Human Red Blood Cells; experiment: Hypochlorite (HOCl) hemolysis of human red blood cells model; format: cell-based; conditions: antioxidant activity; compounds dissolved at 5 mg/ml, aliquots tested
Protocol: Hypochlorite (HOCl) Hemolysis of Human Red Blood Cells Model
The reaction is based on the ability of oxygen radicals to lyse red blood cells. Antioxidant compounds such as ascorbic acid and 4-hydroxy-TEMPO (TEMPOL) prevent membrane damage in a dose dependent manner. All compounds were dissolved at a concentration of 5 mg/ml and aliquots were tested for their ability to prevent lysis.

[5] = tested on: Neutrophils; experiment: PMA-induced oxidative burst in neutrophils model (DCFH, FACS); format: cell-based; conditions: PMA 10 ng/ml for 30 minutes
Protocol: PMA-Induced Oxidative Burst in Neutrophils Model
The cells were activated with PMA (10 ng/ml) for 30 minutes and incubated with 2,7-dichlorodihydrofluorescin diacetate (DCFH), which is converted to a fluorescent compound in the presence of oxygen radicals and peroxynitrites. The fluorescent cells were detected in a cell sorter (FACS).

[6] = tested on: Experimental Allergic Encephalomyelitis (EAE) using PLP 139-151; experiment: PLP induced EAE in mice; format: in vivo, Female SJL mice; conditions: 50 mg/kg/day orally by gavage, day 1 to day 20; for Incid.: sick animals/animals in group
Protocol: Induction of Experimental Allergic Encephalomyelitis (EAE) Using PLP
Female SJL mice (12 weeks old) were inoculated with the encephalitogienic peptide of proteolipid protein (PLP 139-151) synthesized to a purity of 70% by Sigma (Israel). 150 μg of the peptide were emulsified in complete Freund's adjuvant (CFA) (Difco Laboratories), supplemented with killed mycobacteria (5 mg/ml) and pertussis toxin (200 ng) (Sigma), given subcutaneously at day of inoculation only.
Mice were kept at specific pathogen free (SPF) conditions and given water and food ad libitum. Mice were daily observed for clinical signs from day 10 until day 18-21 post inoculation.
Treatment with Test Compounds
Compounds were dissolved in 2-hydroxypropyl beta cyclodextrin (40% water solution). Treatment started at day 1 post inoculation. The compounds B10 and A10 (50 mg/kg) and vehicle were given orally by gavage every day until day 20 post inoculation.
Interpretation of Results: Calculation of the Incidence of Disease
The number of sick animals in each group was summed. The percentage of sick animals in each group was calculated.
Calculation of the Mean Maximal Score (MMS)
The maximal scores of each of the 15 mice in the group were summed.
The mean maximal score of the group were calculated as follows: Σ maximal score of each mouse/number of mice in the group. Calculation of the Mean Disease Duration (MDD)
The mean duration of disease expressed in days was calculated as follows: Σ duration of disease of each mouse/number of mice in the group. Calculation of the Group Mean Score (GMS)
The scores of each of the 15 mice in the group was summed and the mean score per day was calculated.
The group mean score was calculated as follows: Σ total score of each mouse per day/number of mice in the group.

[7] = dose 50 mg/kg/day, gavage x2/day, day 1 to 30

Row | Compound | Chemiluminescence (% inhib.) [3] [%] | HOCl (% lysis) [4] [%] | PMA (% cells activated) [5] [%] | MDD (mean disease duration) [6] [days] | MDO (mean day of onset) [6] | MMS (mean maximal score) [6] | Mean score [6] | Incid. [6] | other results
1 | C#CCN[C@@H]1CCc2ccc(NC(=O)OC3CC(C)(C)N([O])C(C)(C)C3)cc21 [Compound A11, (3-Prop-2-ynylamino-indan-5-yl) carbamic acid 2,2,6,6-tetramethyl-1-piperidinyloxy-4-yl ester HCl] |  |  |  |  |  |  |  |  | effect on EAE ([1]; discussion of results): significant beneficial effect; onset of clinical signs of EAE ([1]; discussion of results): long delay; MDD (mean disease duration) [1, 7]: 8.0 ± 2.02 days; MDO (mean day of onset) [1, 7]: 17.14 ± 0.80; MMS (mean maximal score) [1, 7]: 2.93 ± 0.76; Mean score [1, 7]: 0.65 ± 0.09; Incid. ([1]; sick animals/animals in group, dose 50 mg/kg/day, gavage x2/day, day 1 to 30): 7/13; Neuroprotection MPP+ ([2]; at 10 μM): 43% at 10
2 | CC1(C)CC(O)CC(C)(C)N1[O] [Tempol, 4-hydroxy-2,2,6,6-tetramethylpiperidine-1-nitroxide] | 57 | 25 | 70 |  |  |  |  |  | Neuroprotection MPP+ ([2]; at 0.5-1.0 mmol): Active at 0.5-1.0
3 | C#CCN[C@@H]1CCc2ccc(OC(=O)NC3CC(C)(C)N([O])C(C)(C)C3)cc21.Cl [Compound A10, (2,2,6,6-Tetramethyl-1-piperidinyloxy-4-yl)-carbamic acid 3(R)-prop-2-ynylamino-indan-5-yl ester HCl] |  |  |  | 5.8 ± 0.86 | 11 ± 0.2 | 5.0 ± 0.8 | 3.4 ± 0.3 | 5/5 | 
4 | C#CCNC1CC(C)(C)N([O])C(C)(C)C1.Cl [Compound B10, 2,2,6,6-Tetramethyl-4-(prop-2-ynylamino)-piperidine nitroxide HCl] | 42 | 45 |  | 5.2 ± 0.97 | 13.6 ± 0.81 | 5.0 ± 0.77 | 3.57 ± 0.29 | 5/5 | Neuroprotection MPP+ ([2]; at 1 & 10 μM): Active at 1 & 10; (# dead) [6]: 3
5 | O=C1O[C@H]([C@@H](O)CO)C(O)=C1O [Ascorbic acid] | 100 | 100 | 100 |  |  |  |  |  | 
